In the supplement of paper PMC9386025:

Assays:
Assay in all cases: drug sensitivity score (DSS) (DSS (dimensionless)); higher = more sensitive (stronger drug response)
FIMM-PDC5 = patient-derived ovarian cancer cells; conditions: genetic perturbation: none (patient-derived cell culture)
Procedure, shortened: (§1)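 Ovarian cancer cell lines with shRNA induced by 100 ng/ml doxycycline for at least three days, along with patient-derived cultures, were seeded at 1 000 – 1 500 cells per well onto drugs pre-plated in 384-well plates at five concentrations over a 10,000-fold range and incubated for three days at 37 °C and 5.0 % CO2. CellTiter-Glo luminescence measured on a PHERAstar FS served as the viability readout, and each drug's dose-response curve was summarised as a drug sensitivity score following an earlier published method.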

FIMM-PDC2 = patient-derived ovarian cancer cells; conditions: genetic perturbation: none (patient-derived cell culture)
Procedure, shortened: as §1

OVSAHO = system: OVSAHO
Procedure, shortened: as §1

FIMM-PDC7 = patient-derived ovarian cancer cells; conditions: genetic perturbation: none (patient-derived cell culture)
Procedure, shortened: as §1

FIMM-PDC1 = patient-derived ovarian cancer cells; conditions: genetic perturbation: none (patient-derived cell culture)
Procedure, shortened: as §1

FIMM-PDC3 = patient-derived ovarian cancer cells; conditions: genetic perturbation: none (patient-derived cell culture)
Procedure, shortened: as §1

JHOS2 = system: JHOS2
Procedure, shortened: as §1

Kuramochi = system: Kuramochi
Procedure, shortened: as §1

FIMM-PDC6 = patient-derived ovarian cancer cells; conditions: genetic perturbation: none (patient-derived cell culture)
Procedure, shortened: as §1

FIMM-PDC4 = patient-derived ovarian cancer cells; conditions: genetic perturbation: none (patient-derived cell culture)
Procedure, shortened: as §1

[1] = genetic perturbation: DOX-induced PTK7 shRNA knockdown
[2] = genetic perturbation: DOX-induced control shRNA

SMILES	drug sensitivity score (FIMM-PDC5)	drug sensitivity score (FIMM-PDC2)	drug sensitivity score (OVSAHO; [1])	drug sensitivity score (OVSAHO; [2])	drug sensitivity score (FIMM-PDC7)	drug sensitivity score (FIMM-PDC1)	drug sensitivity score (FIMM-PDC3)	drug sensitivity score (JHOS2; [1])	drug sensitivity score (JHOS2; [2])	drug sensitivity score (Kuramochi; [1])	drug sensitivity score (Kuramochi; [2])	drug sensitivity score (FIMM-PDC6)	drug sensitivity score (FIMM-PDC4)
CO[C@H]1CC[C@H](N2C(=O)CNc3ncc(-c4ccc(C(C)(C)O)nc4)nc32)CC1 [CC-223]	10.3	4.7	6.6	4.9	9.5	3.2	3.5	3.3	3.3	5.1	4.6	5.3	5.9
O=C1CCc2c(Oc3ccc4c(c3)[C@@H]3[C@H](O4)[C@H]3c3nc4cc(C(F)(F)F)ccc4[nH]3)ccnc2N1 [BGB-283]	10.4	3.4	2.4	4	5.8	1.05	4.1	1.8	6.4	3.6	1.7	7.3	7.7
C[C@@H]1COCCN1c1cc(C2([S@](C)(=N)=O)CC2)nc(-c2cc[nH]c3nccc2-3)n1 [AZD6738]	10.4	9.5	6.2	5.5	8.6	12.7	13	6	3.6	6.5	4.5	11	8.7
CC(C)[C@@H](CS(=O)(=O)C(C)C)N1C(=O)[C@@](C)(CC(=O)O)C[C@H](c2cccc(Cl)c2)[C@H]1c1ccc(Cl)cc1 [AMG-232]	20.3	< 0	< 0	< 0	15	< 0	< 0	< 0	< 0	< 0	< 0	14.2	7.1
Cc1sc2c(c1C)C(c1ccc(Cl)cc1)=N[C@@H](CC(=O)NCCCCNC(=O)COc1cccc3c1C(=O)N(C1CCC(=O)NC1=O)C3=O)c1nnc(C)n1-2 (some centres not stated) [dBET1]	11	2.6	4.3	3.4	5.8	0.1	2.7	3.2	5.5	3.9	4.4	7.5	8.1
NC(=O)/C(=C/n1cnc(-c2cc(C(F)(F)F)cc(C(F)(F)F)c2)n1)c1cncnc1 [Eltanexor]	22.4	–	17.8	9.5	17.8	14.7	23.7	18.9	17	12.4	17	25.8	19.9
Cc1cc(Nc2cc(N3CCN(C)CC3)nc(/C=C/c3ccccc3)n2)n[nH]1 [ENMD-2076]	12.4	–	11.5	7.9	4.2	6	8.6	8.3	9.4	9.65	8.1	3.4	10.5
CNC(=O)c1nn(C)c2c1C(C)(C)Cc1cnc(Nc3ccc(N4CCN(C)CC4)cc3)nc1-2 [Milciclib]	10.9	–	8.1	9	7.9	12.7	9.9	6.3	12.4	10.3	8	9.1	8.2
C=CCn1c(=O)c2cnc(Nc3ccc(N4CCN(C)CC4)cc3)nc2n1-c1cccc(C(C)(C)O)n1 [AZD1775]	19	12.9	16.3	9.6	8.8	21.6	17	8.6	8.3	10.3	9.9	4	10.4
CC(C)(C)C[C@@H]1N[C@@H](C(=O)N[C@H]2CC[C@H](O)CC2)[C@H](c2cccc(Cl)c2F)[C@]12C(=O)Nc1cc(Cl)ccc12	15.8	–	2.7	1.2	5	< 0	4.9	4.8	0.1	1.9	0.8	10.5	8.1
CN[C@@H](C)C(=O)N[C@H]1CN(C(=O)CC(C)C)CC[C@H]2CC[C@@H](C(=O)NC(c3ccccc3)c3ccccc3)N2C1=O [AT-406]	1.5	10.5	4.3	< 0	0.6	7.9	10.8	16.5	10.2	1.1	0.3	5.3	0.9
COc1c(OCCCN2CCOCC2)ccc2c1N=C(NC(=O)c1cnc(N)nc1)N1CCN=C21 [Copanlisib]	17.3	–	7.8	10.5	11.1	7.3	6.2	4.4	5.8	6.95	4.6	10.2	12.4
COc1cc(N2CCC(N3CCN(C)CC3)CC2)ccc1Nc1ncnc(Nc2ccccc2S(=O)(=O)C(C)C)n1 [ASP3026]	7.7	–	5.3	4.5	3.4	3.85	5.5	5.7	5.1	4.5	3.2	5.3	8.1
CC[C@@H]1C(=O)N(C)c2cnc(Nc3ccc(C(=O)N[C@H]4CC[C@H](N5CCN(CC6CC6)CC5)CC4)cc3OC)nc2N1C(C)C [Volasertib]	14.8	–	6.4	6.4	4.2	3.9	7	14.2	4.7	9.65	2.4	0.9	6
CNC(=O)c1ccccc1Nc1nc(Nc2ccc3c(c2OC)CCC[C@H](N2CCN(CCO)CC2)C3)ncc1Cl	10.2	–	12.4	7.5	5.5	7.5	6.9	7.1	5.6	7.7	6.3	5.3	9.6
CC1(C)OCCn2c1nc1c(N3CCOCC3)nc(-c3cnc(N)nc3)nc12 [GDC-0084]	17	10.3	10.2	9.7	14.2	7.65	7.9	7	8.5	10.2	6.3	13.3	13.1
COc1cccc2c1C(=O)c1c(O)c3c(c(O)c1C2=O)C[C@@](O)(C(=O)CO)C[C@@H]3O[C@H]1C[C@H](N)[C@@H](O)[C@H](C)O1 [Epirubicin]	5.6	–	5.8	5.2	7.4	4.2	6.6	7.1	6.1	4.45	3.9	3.5	7.9
